The test concerns the target T1, ΔF508-CFTR (Homo sapiens, UniProt P13569, DEL508-508).
T1 construct: Primary lung epithelial cells homozygous for the Cystic Fibrosis-causing ΔF508 mutation were differentiated for a minimum of 4 weeks; endogenous in cells; host or cells: primary lung epithelial cells (hBE) homozygous for ΔF508, differentiated at an air-liquid interface
Put plainly: hBE equivalent current (Ieq) assay: AUC of equivalent chloride current after forskolin/VX-770 in primary lung epithelial cells homozygous for ΔF508. The note with it: relative to CFTR amplifier (Compound A)+VX-809 (3 uM), compound at 10 uM and Compound A at 3 uM, 24 h treatment. In kind it is cell-based. As to the method:
ii. hBE Equivalent Current (Ieq) Assay
Primary lung epithelial cells homozygous for the Cystic Fibrosis-causing ΔF508 mutation were differentiated for a minimum of 4 weeks in an air-liquid interface on Costar 24 well HTS filter plates prior to the equivalent current (Ieq) measurements. Cells were apically mucus-washed for 30 minutes 24 h prior to treatment with compounds. The basolateral media was removed and replaced with media containing the compound of interest diluted to its final concentration from DMSO stocks. Treated cells were incubated at 37° C. and 5% CO2 for 24 hours. At the end of the treatment period, the media was changed to the Ieq experimental solution for 2 hours before the experiment and plates are maintained in a CO2-free incubator during this period. The plates containing the cells were then placed in pre-warmed heating blocks at 36° C.±0.5 for 15 minutes before measurements are taken. The transepithelial voltage (VT) and conductance (GT) were measured using a custom 24 channel current clamp (TECC-24) with 24 well electrode manifold. The Ieq assay measurements were made following additions with standardized time periods: • 1. The baseline VT and GT values were measured for approximately 20 minutes. • 2. Benzamil was added to block ENaC for 15 minutes. • 3. Forskolin plus VX-770 were added to maximally activate ΔF508-CFTR for 27 minutes. • 4. Bumetanide was added to inhibit the NaK2Cl cotransporter and shut-off secretion of chloride.
The activity data captured was the area under the curve (AUC) for the traces of the equivalent chloride current. The AUC was collected from the time of the forskolin/VX-770 addition until the inhibition by bumetanide addition. Correction in response to compound treatment was scored as the increase in the AUC for compound-treated samples over that of vehicle-treated samples.
(+ indicates activity<50% of an CFTR amplifier (Compound A)+VX-809 (3 uM) with compound at 10 uM and Compound A at 3 uM; ++ indicates activity>50% of CFTR amplifier+VX-809 (3 uM) with compound at 10 uM and Compound A at 3 uM.
T1 sequence (P13569 with tags, fused parts or gaps DEL508-508): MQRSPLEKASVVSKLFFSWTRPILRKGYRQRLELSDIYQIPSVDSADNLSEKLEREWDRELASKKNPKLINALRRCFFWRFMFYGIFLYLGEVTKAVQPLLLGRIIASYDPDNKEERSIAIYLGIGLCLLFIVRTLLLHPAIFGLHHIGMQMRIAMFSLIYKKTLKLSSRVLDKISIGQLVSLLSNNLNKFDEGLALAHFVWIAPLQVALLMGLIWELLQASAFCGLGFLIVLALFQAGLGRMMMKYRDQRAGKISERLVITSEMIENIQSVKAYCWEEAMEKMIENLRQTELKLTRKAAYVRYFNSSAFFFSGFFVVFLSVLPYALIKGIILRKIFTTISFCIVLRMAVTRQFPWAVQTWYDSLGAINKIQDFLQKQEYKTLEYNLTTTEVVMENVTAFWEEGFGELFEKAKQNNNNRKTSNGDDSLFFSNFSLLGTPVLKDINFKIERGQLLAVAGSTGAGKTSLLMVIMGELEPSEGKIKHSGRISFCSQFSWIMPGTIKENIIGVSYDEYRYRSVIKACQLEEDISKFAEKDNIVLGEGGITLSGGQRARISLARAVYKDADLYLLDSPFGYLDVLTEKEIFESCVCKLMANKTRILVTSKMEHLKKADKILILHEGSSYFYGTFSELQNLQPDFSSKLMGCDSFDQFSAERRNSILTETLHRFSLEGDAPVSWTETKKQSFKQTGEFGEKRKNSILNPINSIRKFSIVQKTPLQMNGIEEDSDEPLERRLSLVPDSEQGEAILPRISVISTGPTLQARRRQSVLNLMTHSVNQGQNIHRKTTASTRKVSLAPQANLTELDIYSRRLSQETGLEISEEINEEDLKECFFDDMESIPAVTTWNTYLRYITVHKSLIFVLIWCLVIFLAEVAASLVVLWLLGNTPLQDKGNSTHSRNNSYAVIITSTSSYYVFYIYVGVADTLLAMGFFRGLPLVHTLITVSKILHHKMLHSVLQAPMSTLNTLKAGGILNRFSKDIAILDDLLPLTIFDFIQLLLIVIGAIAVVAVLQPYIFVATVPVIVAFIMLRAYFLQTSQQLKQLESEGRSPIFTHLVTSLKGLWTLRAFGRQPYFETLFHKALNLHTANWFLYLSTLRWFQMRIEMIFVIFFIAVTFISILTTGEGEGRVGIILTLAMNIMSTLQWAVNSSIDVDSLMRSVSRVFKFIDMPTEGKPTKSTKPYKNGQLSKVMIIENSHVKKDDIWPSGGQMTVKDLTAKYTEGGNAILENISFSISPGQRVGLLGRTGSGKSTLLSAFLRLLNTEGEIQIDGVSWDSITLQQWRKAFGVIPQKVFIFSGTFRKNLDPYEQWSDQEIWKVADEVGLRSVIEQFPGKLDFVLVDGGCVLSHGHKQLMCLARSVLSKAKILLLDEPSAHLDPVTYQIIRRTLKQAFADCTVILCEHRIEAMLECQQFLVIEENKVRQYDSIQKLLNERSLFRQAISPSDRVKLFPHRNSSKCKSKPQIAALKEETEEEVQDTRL
Turning to `CCc1ccc(O[C@@H](C)c2ccccc2)c2c(C(=O)O)cc(-c3csc4ccccc34)nc12` [Compound 166], the Activity entry was “++ (activity>50% of CFTR amplifier+VX-809 (3 uM) with compound at 10 uM and Compound A at 3 uM)”.
To `Cc1c(-c2cc(C(=O)[O-])c3c(OC[C@@H]4C[C@H]5CC[C@@H](C4)O5)ccc(C)c3n2)oc2ccccc12.[Na+]` [Compound 356] belongs “++ (activity>50% of CFTR amplifier+VX-809 (3 uM) with compound at 10 uM and Compound A at 3 uM)”.
In the case of `CO[C@]1(C)CC[C@@H](COc2ccc(C)c3nc(-c4sc5ccccc5c4C)cc(C(=O)[O-])c23)CC1.[Na+]` [Compound 327], the Activity result was “++ (activity>50% of CFTR amplifier+VX-809 (3 uM) with compound at 10 uM and Compound A at 3 uM)”.
For `Cc1c(-c2cc(C(=O)O)c3cc(C(C)C)cc(C)c3n2)oc2ccccc12` [Compound 36] the value was “++ (activity>50% of CFTR amplifier+VX-809 (3 uM) with compound at 10 uM and Compound A at 3 uM)”.
Consider `Cc1c(-c2cc(C(=O)[O-])c3c(OC(C)c4ccc(C5COC5)cc4)ccc(C)c3n2)sc2ccccc12.[Na+]` (stereo not drawn) [Compound 373], for which the Activity result is “++ (activity>50% of CFTR amplifier+VX-809 (3 uM) with compound at 10 uM and Compound A at 3 uM)”.
For `CCc1ccc(OCc2ccc(C)cc2)c2c(C(=O)O)cc(-c3csc4ccccc34)nc12` [Compound 189] the value was “++ (activity>50% of CFTR amplifier+VX-809 (3 uM) with compound at 10 uM and Compound A at 3 uM)”; for `Cc1cc(C)c2nc(-c3cc4ccccc4o3)c(C)c(C(=O)O)c2c1` [Compound 7, 2-(1-Benzofuran-2-yl)-3,6,8-trimethylquinoline-4-carboxylic acid], “+ (activity<50% of an CFTR amplifier (Compound A)+VX-809 (3 uM) with compound at 10 uM and Compound A at 3 uM)”.
To `Cc1c(-c2cc(C(=O)O)c3c(OC(=O)Nc4ccccc4)ccc(C)c3n2)oc2ccccc12` [Compound 81, 8-Methyl-2-(3-methyl-1-benzofuran-2-yl)-5-[(phenylcarbamoyl)oxy]quinoline-4-carboxylic Acid] belongs “+ (activity<50% of an CFTR amplifier (Compound A)+VX-809 (3 uM) with compound at 10 uM and Compound A at 3 uM)”; to `Cc1c(-c2cc(C(=O)[O-])c3c(O[C@H](C)C4CCN(S(C)(=O)=O)CC4)ccc(C)c3n2)oc2ccccc12.[Na+]` [Compound 247, Sodium 5-[(1R)-1-(1-Methanesulfonylpiperidin-4-yl)ethoxy]-8-methyl-2-(3-methyl-1-benzofuran-2-yl)quinoline-4-carboxylate], “++ (activity>50% of CFTR amplifier+VX-809 (3 uM) with compound at 10 uM and Compound A at 3 uM)”; to `Cc1c(-c2cc(C(=O)[O-])c3c(O[C@H]4C[C@H](c5ccccc5)C4)ccc(C)c3n2)oc2ccccc12.[Na+]` [Compound 281, Sodium 8-Methyl-2-(3-methyl-1-benzofuran-2-yl)-5-[(1r,3r)-3-phenylcyclobutoxy]quinoline-4-carboxylate], “++ (activity>50% of CFTR amplifier+VX-809 (3 uM) with compound at 10 uM and Compound A at 3 uM)”.
As to `Cc1c(-c2cc(-c3cc(O)[nH]n3)c3c(O[C@H](C)c4ccccc4)ccc(C)c3n2)oc2ccccc12` [Compound 274], the Activity entry is “+ (activity<50% of an CFTR amplifier (Compound A)+VX-809 (3 uM) with compound at 10 uM and Compound A at 3 uM)”.
`CNS(=O)(=O)c1ccc([C@@H](C)Oc2ccc(C)c3nc(-c4oc5ccccc5c4C)cc(C(=O)[O-])c23)cc1.[Na+]` [Compound 239, Sodium 8-Methyl-2-(3-methyl-l-benzofuran-2-yl)-5-[(1R)-1-[4-(methylsulfamoyl)phenyl]ethoxy]quinoline-4-carboxylate]: the Activity result was “++ (activity>50% of CFTR amplifier+VX-809 (3 uM) with compound at 10 uM and Compound A at 3 uM)”.
For `CCc1ccc(OCc2ccc([S+](C)[O-])cc2)c2c(C(=O)O)cc(-c3oc4ccccc4c3C)nc12` (stereo not drawn) [Compound 144, 8-Ethyl-5-[(4-methanesulfinylphenyl)methoxy]-2-(3-methyl-1-benzofuran-2-yl)quinoline-4-carboxylic acid] the value was “++ (activity>50% of CFTR amplifier+VX-809 (3 uM) with compound at 10 uM and Compound A at 3 uM)”; for `CCc1ccc(OCc2ccccc2)c2c(C(=O)O)cc(-c3sc4ccccc4c3C)nc12` [Compound 133, 5-(Benzyloxy)-8-ethyl-2-(3-methyl-1-benzothiophen-2-yl)quinoline-4-carboxylic acid], “++ (activity>50% of CFTR amplifier+VX-809 (3 uM) with compound at 10 uM and Compound A at 3 uM)”; for `Cc1c(-c2cc(C(=O)[O-])c3c(OC4CCOCC4)ccc(C)c3n2)oc2ccccc12.[Na+]` [Compound 332], “++ (activity>50% of CFTR amplifier+VX-809 (3 uM) with compound at 10 uM and Compound A at 3 uM)”.
For `COC[C@@H](Oc1ccc(C)c2nc(-c3sc4ccccc4c3C)cc(C(=O)[O-])c12)c1ccccc1.[Na+]` [Compound 309] the value was “++ (activity>50% of CFTR amplifier+VX-809 (3 uM) with compound at 10 uM and Compound A at 3 uM)”; for `CO[C@]1(C)CC[C@@H](COc2ccc(C)c3nc(-c4oc5ccccc5c4C)cc(C(=O)[O-])c23)CC1.[Na+]` [Compound 388], “++ (activity>50% of CFTR amplifier+VX-809 (3 uM) with compound at 10 uM and Compound A at 3 uM)”.
For `Cc1c(-c2cc(C(=O)[O-])c3c(OCc4cccc(F)c4)ccc(C)c3n2)sc2ccccc12.[Na+]` [Compound 290, Sodium 5-[(3-Fluorophenyl)methoxy]-8-methyl-2-(3-methyl-1-benzothiophen-2-yl)quinoline-4-carboxylate] the value was “++ (activity>50% of CFTR amplifier+VX-809 (3 uM) with compound at 10 uM and Compound A at 3 uM)”; for `Cc1c(-c2cc(C(=O)[O-])c3c(O[C@H](C)C4CCOCC4)ccc(C)c3n2)sc2ccccc12.[Na+]` [Compound 330], “++ (activity>50% of CFTR amplifier+VX-809 (3 uM) with compound at 10 uM and Compound A at 3 uM)”; for `CCc1ccc(OCc2cccc(S(C)(=O)=O)c2)c2c(C(=O)O)cc(-c3oc4ccccc4c3C)nc12` [Compound 143, 8-Ethyl-5-[(3-methanesulfonylphenyl)methoxy]-2-(3-methyl-1-benzofuran-2-yl)quinoline-4-carboxylic Acid], “++ (activity>50% of CFTR amplifier+VX-809 (3 uM) with compound at 10 uM and Compound A at 3 uM)”.
`Cc1ccc(O[C@H](C)c2ccccc2)c2c(C(=O)[O-])cc(-c3cn4ccccc4n3)nc12.[Na+]` [Compound 202, Sodium 2-[Imidazo[1,2-a]pyridin-2-yl]-8-methyl-5-[(1R)-1-phenylethoxy]quinoline-4-carboxylate]: the Activity entry is “+ (activity<50% of an CFTR amplifier (Compound A)+VX-809 (3 uM) with compound at 10 uM and Compound A at 3 uM)”.
As to `Cc1c(-c2cc(C(=O)[O-])c3c(OC4CC5(COC5)C4)ccc(C)c3n2)sc2ccccc12.[Na+]` [Compound 370], the Activity entry was “++ (activity>50% of CFTR amplifier+VX-809 (3 uM) with compound at 10 uM and Compound A at 3 uM)”.
For `Cc1oc2ccccc2c1-c1cc(C(=O)O)c2c(OCc3ccccc3)ccc(C3CC3)c2n1` [Compound 106, 5-(Benzyloxy)-8-cyclopropyl-2-(2-methyl-1-benzofuran-3-yl)quinoline-4-carboxylic acid] the value was “++ (activity>50% of CFTR amplifier+VX-809 (3 uM) with compound at 10 uM and Compound A at 3 uM)”.
As for `CCc1ccc(OCc2ccccc2)c2c(C(=O)O)cc(-c3csc4ccccc34)nc12` [Compound 158, 2-(1-Benzothiophen-3-yl)-5-(benzyloxy)-8-ethylquinoline-4-carboxylic acid], the Activity result is “++ (activity>50% of CFTR amplifier+VX-809 (3 uM) with compound at 10 uM and Compound A at 3 uM)”.
To `Cc1c(-c2cc(C(=O)[O-])c3c(OCc4c(F)cccc4F)ccc(C)c3n2)sc2ccccc12.[Na+]` [Compound 294, Sodium 5-[(2,6-Difluorophenyl)methoxy]-8-methyl-2-(3-methyl-1-benzothiophen-2-yl)quinoline-4-carboxylate] belongs “++ (activity>50% of CFTR amplifier+VX-809 (3 uM) with compound at 10 uM and Compound A at 3 uM)”; to `Cc1c(-c2cc(C(=O)[O-])c3c(OCC4CC(C)(C)OC(C)(C)C4)ccc(C)c3n2)oc2ccccc12.[Na+]` [Compound 338], “++ (activity>50% of CFTR amplifier+VX-809 (3 uM) with compound at 10 uM and Compound A at 3 uM)”; to `CCc1ccc(OCc2ccc(-c3cnccn3)cc2)c2c(C(=O)O)cc(-c3csc4ccccc34)nc12` [Compound 192, 2-(1-Benzothiophen-3-yl)-8-ethyl-5-[[4-(pyrazin-2-yl)phenyl]methoxy]quinoline-4-carboxylic acid], “++ (activity>50% of CFTR amplifier+VX-809 (3 uM) with compound at 10 uM and Compound A at 3 uM)”.
